Assay results: PubChem BioAssay AID256 (DTP/NCI, 2004)
“And” between values parts separate entries of the source, which are not always exact repeats. Equal values may be shown once. Toxic doses and inconclusive results are not listed.

System: CD2F1 mice, L1210 leukemia ip, survival T/C
Assay: NCI In Vivo Anticancer Drug Screen. Data for tumor model L1210 Leukemia (intraperitoneal) in CD2F1 (CDF1) mice
Details: endpoint: mean survival time, higher = longer survival
Method in brief: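 Read-out first: treated-group measurement over vehicle-control measurement, expressed as a ratio. Animals bore a transplanted tumor line and were dosed with compound or vehicle.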

[1] = dose: 100.0 mg/kg/injection, schedule: Q01DX001 (ip), vehicle: saline
[2] = dose: 200.0 mg/kg/injection, schedule: Q01DX001 (ip), vehicle: saline
[3] = dose: 100.0 mg/kg/injection, schedule: Q01DX001 (ip), vehicle: saline with Tween-80
[4] = dose: 200.0 mg/kg/injection, schedule: Q01DX001 (ip), vehicle: saline with Tween-80
[5] = dose: 400.0 mg/kg/injection, schedule: Q01DX001 (ip), vehicle: saline with Tween-80
[6] = dose: 100.0 mg/kg/injection, schedule: Q04DX003 (ip), vehicle: other
[7] = dose: 200.0 mg/kg/injection, schedule: Q04DX003 (ip), vehicle: other
[8] = dose: 100.0 mg/kg/injection, schedule: Q04DX003 (ip), vehicle: saline with Tween-80
[9] = dose: 200.0 mg/kg/injection, schedule: Q04DX003 (ip), vehicle: saline with Tween-80
[10] = dose: 400.0 mg/kg/injection, schedule: Q04DX003 (ip), vehicle: saline with Tween-80

## O=CNCCc1ccc2c(c1)[nH]c1ccccc12
[1]
  T/C: 95 % of control
[2]
  T/C: 98 % of control
dose: 400.0 mg/kg/injection, schedule: Q01DX001 (ip), vehicle: saline
  T/C: 98 % of control

## Nc1ccn([C@@H](C=O)O[C@@H](C=O)CO)c(=O)n1
dose: 6.25 mg/kg/injection, schedule: Q01DX009 (ip), vehicle: saline
  T/C: 105 % of control
dose: 12.5 mg/kg/injection, schedule: Q01DX009 (ip), vehicle: saline
  T/C: 114 % of control and 108 % of control
dose: 25.0 mg/kg/injection, schedule: Q01DX009 (ip), vehicle: saline
  T/C: 115 % of control and 117 % of control
dose: 50.0 mg/kg/injection, schedule: Q01DX009 (ip), vehicle: saline
  T/C: 121 % of control
dose: 70.0 mg/kg/injection, schedule: Q01DX001 (ip), vehicle: saline
  T/C: 114 % of control
dose: 100.0 mg/kg/injection, schedule: Q01DX009 (ip), vehicle: saline
  T/C: 155 % of control and 162 % of control
dose: 140.0 mg/kg/injection, schedule: Q01DX001 (ip), vehicle: saline
  T/C: 124 % of control
dose: 200.0 mg/kg/injection, schedule: Q01DX009 (ip), vehicle: saline
  T/C: 211 % of control

## CC(=O)NC(Cc1ccccc1)c1ccccc1 (stereo unspecified)
[3]
  T/C: 112 % of control
[4]
  T/C: 105 % of control
[5]
  T/C: 86 % of control

## O=C([CH-]C(=O)C(F)(F)F)c1ccccc1.O=C([CH-]C(=O)C(F)(F)F)c1ccccc1.O=C([CH-]C(=O)C(F)(F)F)c1ccccc1.O=C([CH-]C(=O)C(F)(F)F)c1ccccc1.[Eu+3].c1ccncc1
dose: 12.5 mg/kg/injection, schedule: Q01DX009 (ip), vehicle: Klucel (hydroxypropylcellulose) (HPC)
  T/C: 95 % of control and 101 % of control
dose: 25.0 mg/kg/injection, schedule: Q01DX009 (ip), vehicle: Klucel (hydroxypropylcellulose) (HPC)
  T/C: 101 % of control
dose: 50.0 mg/kg/injection, schedule: Q01DX009 (ip), vehicle: Klucel (hydroxypropylcellulose) (HPC)
  T/C: 89 % of control and 106 % of control
dose: 100.0 mg/kg/injection, schedule: Q01DX009 (ip), vehicle: Klucel (hydroxypropylcellulose) (HPC)
  T/C: 97 % of control and 109 % of control
dose: 200.0 mg/kg/injection, schedule: Q01DX009 (ip), vehicle: Klucel (hydroxypropylcellulose) (HPC)
  T/C: 95 % of control and 100 % of control
dose: 400.0 mg/kg/injection, schedule: Q01DX009 (ip), vehicle: Klucel (hydroxypropylcellulose) (HPC)
  T/C: 97 % of control and 100 % of control

## ClCCOc1ccccc1-c1ccccc1
[6]
  T/C: 98 % of control
[7]
  T/C: 96 % of control
dose: 400.0 mg/kg/injection, schedule: Q04DX003 (ip), vehicle: other
  T/C: 100 % of control

## Cc1c2cnccc2c(C)c2c1c1ccccc1n2CCNCc1ccccc1
[8]
  T/C: 105 % of control
[9]
  T/C: 107 % of control

## CCOC(=S)SCCSC
[1]
  T/C: 103 % of control
[2]
  T/C: 98 % of control

## CNC(=O)N(C)c1ccccc1
dose: 100.0 mg/kg/injection, schedule: Q04DX002 (ip), vehicle: saline
  T/C: 101 % of control
dose: 200.0 mg/kg/injection, schedule: Q04DX002 (ip), vehicle: saline
  T/C: 101 % of control
dose: 400.0 mg/kg/injection, schedule: Q04DX002 (ip), vehicle: saline
  T/C: 101 % of control

## COc1ccc(C2=NNc3n[nH]c(=S)n3N2)cc1OC
dose: 100.0 mg/kg/injection, schedule: Q01DX009 (ip), vehicle: saline with Tween-80
  T/C: 93 % of control
[8]
  T/C: 91 % of control
dose: 200.0 mg/kg/injection, schedule: Q01DX009 (ip), vehicle: saline with Tween-80
  T/C: 93 % of control
[9]
  T/C: 101 % of control
dose: 400.0 mg/kg/injection, schedule: Q01DX009 (ip), vehicle: saline with Tween-80
  T/C: 104 % of control
[10]
  T/C: 90 % of control

## COC(=O)N(C)c1cccc(OC(=O)N(C)C)c1
[8]
  T/C: 92 % of control
[9]
  T/C: 99 % of control
[10]
  T/C: 99 % of control

## Cc1nc(N)[nH]c(=O)c1[N+](=O)[O-]
[6]
  T/C: 108 % of control
[7]
  T/C: 113 % of control

## CCOC(=O)NC(C)(C)CN(C(=O)OCC)C(C)C
dose: 100.0 mg/kg/injection, schedule: Q01DX009 (ip), vehicle: other
  T/C: 102 % of control
dose: 200.0 mg/kg/injection, schedule: Q01DX009 (ip), vehicle: other
  T/C: 104 % of control

## COc1cc(/C=N/N2C(=O)CSC2=S)ccc1OCc1ccccc1
[3]
  T/C: 95 % of control
[4]
  T/C: 91 % of control
[5]
  T/C: 89 % of control
